Experimental data: PMC10518010, “The leaderless communication peptide (LCP) class of quorum-sensing peptides is broadly distributed among Firmicutes” (Nature Communications, 2023)
Where a SMILES comes first, the peptide text is derived from it. The star is where a group is joined. FITC = O=C1OC2(c3ccc(O)cc3Oc3cc(O)ccc32)c2ccc(NC(=S)*)cc21

How the values were obtained:
[1] = system: bacterial virulence in animal models of infection; settings: cited from earlier work
Excerpt: (§1) Recently, we discovered a new class of leaderless communication peptide (LCP) in human pathogen Streptococcus pyogenes that controls bacterial virulence (Fig. 1a)[10]. Contrary to characterized bacterial peptide signals, the LCP, known as SpeB-inducing peptide (SIP), is synthesized from a 24 base pair ultrasmall open reading frame (usORF) encoding a mature 8 amino acid peptide without the amino acid sequences required for secretion and processing. Consistent with the lack of hallmarks of bacterial peptide signals, the canonical machineries required for the export and import of qs peptides ...

[2] = system: secreted cysteine protease SpeB; settings: S. pyogenes; cited from earlier work
Excerpt: as §1

RopB = settings: S. pyogenes; cited from earlier work
Excerpt: as §1

[3] = system: specific DNA/promoter sequences; settings: peer review response; ref "our detailed published findings"; cited from earlier work
Excerpt: page 13: not provide the desired explanation for the differences in the binding sites of both receptors. Consequently, we provided analyses and explanation in the previous version that is supported by the data and meaningful. - Regarding this point, it has recently been published that RopB-GAS might act as a repressor and not as a transcriptional activator (DOI: 10.26508/lsa.202201809), as the authors show for RopBss. Could this fact explain the differences in their binding sites? Perhaps this point would be interesting to discuss in the manuscript. RESPONSE: We are aware of this study. Howeve ...

WT S. salivarius = settings: 30 min, fluorescence and microscopy
Excerpt: Cells were harvested by centrifugation, and washed three times with sterile PBS. Cells were fixed on the coverslip using 1% glutaraldehyde and 3% formaldehyde. The images were taken using a Nikon Eclipse TiN-STORM super resolution microscope equipped with iXon3 897 EM-CCD camera.

[4] = target: FITC-labeled synthetic LCPss (S. salivarius); assay: fluorescence polarisation; purified RopBss titrated against FITC-labeled LCPss; 20 mM potassium phosphate pH 6.0, 75 mM NaCl, 2% DMSO, 1 mM EDTA, 0.0005% Tween 20

## MWLLLLFL [SIP, SpeB-inducing peptide of Streptococcus pyogenes, mature 8 amino acid peptide]
[1]
  Bacterial virulence (in words): increased bacterial virulence in animal models of infection
[2]
  SpeB regulation (in words): upregulation of an adjacently located virulence factor, a secreted cysteine protease SpeB
RopB
  Binding to RopB (in words): binds to a RRNPPA-family transcription activator, Regulator of Protease B (RopB)
[3]
  RopB binding to promoter sequences in the presence of SIP (in words): with high affinity only in the presence of SIP

## CC[C@H](C)[C@H](NC(=O)[C@H](CC(C)C)NC(=O)[C@H](Cc1c[nH]c2ccccc12)NC(=O)[C@H](CCSC)NC(=S)Nc1ccc2c(c1)C(=O)OC21c2ccc(O)cc2Oc2cc(O)ccc21)C(=O)N[C@@H](CC(C)C)C(=O)N[C@@H](CC(C)C)C(=O)N[C@@H](Cc1ccccc1)C(=O)N[C@@H](CC(C)C)C(=O)O [FITC-LCPss] ({FITC}-MWLILLFL-OH)
WT S. salivarius
  Internalization of exogenously added peptide (in words): internalization of the exogenously added FITC-labeled synthetic LCPss

## RopBss (RopB homolog, cytosolic LCP receptor of Streptococcus salivarius)
[4]
  Kd: 8 nM
